Experimental data from PubChem BioAssay (NCI).
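Method: 48-hour compound exposure of cells in 96-well plates, five concentrations, linear interpolation of endpoints. Definition used: TGI = concentration required for complete inhibition of growth.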

Columns and labels:
Assay in all cases: NCI-60 cell line screen, 48 h
[1] = system: OVCAR-3 ovarian
[2] = system: 786-0 renal
[3] = system: NCI-H460 lung
[4] = system: EKVX NSCLC
[5] = system: MCF7 breast
[6] = system: TK-10 renal
[7] = system: MDA-MB-435
[8] = system: K-562 leukemia
[9] = system: LOX IMVI melanoma
[10] = system: HS 578T breast
[11] = system: SF-268 CNS
[12] = system: HL-60(TB) leukemia
[13] = system: T-47D breast
[14] = system: HOP-62 NSCLC
[15] = system: SK-MEL-28 melanoma
[16] = system: UO-31 renal
[17] = system: OVCAR-8 ovarian
[18] = system: HOP-92 NSCLC
[19] = system: UACC-257 melanoma
[20] = system: SR leukemia
[21] = system: UACC-62 melanoma
[22] = system: PC-3 prostate
[23] = system: HT29 colon
[24] = system: SN12C renal
[25] = system: CAKI-1 renal
[26] = system: SNB-19 CNS
[27] = system: M14 melanoma
[28] = system: IGROV1 ovarian
[29] = system: SK-OV-3 ovarian
[30] = system: RXF 393 renal
[31] = system: HCT-116 colon
[32] = system: CCRF-CEM leukemia
[33] = system: SNB-75 CNS
[34] = system: U251 CNS
[35] = system: MOLT-4 leukemia
[36] = system: NCI/ADR-RES ovarian
[37] = system: KM12 colon
[38] = system: MDA-N
[39] = system: MALME-3M melanoma
[40] = system: SK-MEL-5 melanoma
[41] = system: SW-620 colon
[42] = system: NCI-H522 lung
[43] = system: SF-295 CNS
[44] = system: OVCAR-5 ovarian
[45] = system: A498 renal
[46] = system: ACHN renal
[47] = system: DU-145 prostate
[48] = system: A549 NSCLC
[49] = system: NCI-H226 lung
[50] = system: NCI-H23 lung
[51] = system: MDA-MB-231 breast
[52] = system: OVCAR-4 ovarian
[53] = system: SF-539 CNS
[54] = system: COLO 205 colon
[55] = system: HCC-2998 colon
[56] = system: SK-MEL-2 melanoma
[57] = system: RPMI-8226 leukemia
[58] = system: BT-549 breast
[59] = system: HCT-15 colon

N#CC(C#N)=Cn1c(=S)[nH]c2ccccc21
TGI [1]: > 100 µM
TGI [2]: > 100 µM
TGI [3]: > 100 µM
TGI [4]: > 100 µM
TGI [5]: > 100 µM
TGI [6]: > 100 µM
TGI [7]: > 100 µM
TGI [8]: > 100 µM
TGI [9]: > 100 µM
TGI [10]: > 100 µM
TGI [11]: > 100 µM
TGI [12]: > 100 µM
TGI [13]: > 100 µM
TGI [14]: > 100 µM
TGI [15]: > 100 µM
TGI [16]: > 100 µM
TGI [17]: > 100 µM
TGI [18]: > 100 µM
TGI [19]: > 100 µM
TGI [20]: > 100 µM
TGI [21]: > 100 µM
TGI [22]: > 100 µM
TGI [23]: > 100 µM
TGI [24]: > 100 µM
TGI [25]: > 100 µM
TGI [26]: > 100 µM
TGI [27]: > 100 µM
TGI [28]: > 100 µM
TGI [29]: > 100 µM
TGI [30]: > 100 µM
TGI [31]: > 100 µM
TGI [32]: > 100 µM
TGI [33]: > 100 µM
TGI [34]: > 100 µM
TGI [35]: > 100 µM
TGI [36]: > 100 µM
TGI [37]: > 100 µM
TGI [38]: > 100 µM
TGI [39]: > 100 µM
TGI [40]: > 100 µM
TGI [41]: > 100 µM
TGI [42]: > 100 µM
TGI [43]: > 100 µM
TGI [44]: > 100 µM
TGI [45]: > 100 µM
TGI [46]: > 100 µM
TGI [47]: > 100 µM
TGI [48]: > 100 µM
TGI [49]: > 100 µM
TGI [50]: > 100 µM
TGI [51]: > 100 µM
TGI [52]: > 100 µM
TGI [53]: > 100 µM
TGI [54]: > 100 µM
TGI [55]: > 100 µM
TGI [56]: > 100 µM
TGI [57]: > 100 µM

CCC(=O)C(C(C)/C=C/CCSc1ccccc1)C(O)CCCCCC(=O)OC (stereo unspecified)
TGI [1]: > 100 µM
TGI [2]: > 100 µM
TGI [3]: > 100 µM
TGI [4]: > 100 µM
TGI [5]: > 100 µM
TGI [6]: > 100 µM
TGI [7]: > 100 µM
TGI [8]: > 100 µM
TGI [9]: > 100 µM
TGI [58]: > 100 µM
TGI [11]: > 100 µM
TGI [14]: > 100 µM
TGI [15]: > 100 µM
TGI [16]: > 100 µM
TGI [17]: > 100 µM
TGI [18]: > 100 µM
TGI [19]: > 100 µM
TGI [20]: > 100 µM
TGI [21]: > 100 µM
TGI [22]: > 100 µM
TGI [23]: > 100 µM
TGI [24]: > 100 µM
TGI [25]: > 100 µM
TGI [26]: > 100 µM
TGI [27]: > 100 µM
TGI [28]: > 100 µM
TGI [29]: > 100 µM
TGI [30]: > 100 µM
TGI [31]: > 100 µM
TGI [32]: > 100 µM
TGI [33]: > 100 µM
TGI [34]: > 100 µM
TGI [35]: 81 µM
TGI [36]: > 100 µM
TGI [37]: > 100 µM
TGI [38]: > 100 µM
TGI [39]: > 100 µM
TGI [59]: > 100 µM
TGI [40]: > 100 µM
TGI [41]: > 100 µM
TGI [42]: > 100 µM
TGI [43]: > 100 µM
TGI [44]: > 100 µM
TGI [46]: > 100 µM
TGI [47]: > 100 µM
TGI [48]: > 100 µM
TGI [49]: > 100 µM
TGI [50]: > 100 µM
TGI [51]: > 100 µM
TGI [52]: > 100 µM
TGI [53]: > 100 µM
TGI [54]: > 100 µM
TGI [55]: > 100 µM
TGI [56]: > 100 µM
TGI [57]: > 100 µM

Cc1ccc(S(=O)(=O)NNC2Oc3cc4c(cc3C(c3ccccc3O)C2C)OCO4)cc1 (stereo unspecified)
TGI [1]: 23.7 µM
TGI [3]: 24.5 µM
TGI [4]: 23.8 µM
TGI [5]: 35.2 µM
TGI [6]: 31.3 µM
TGI [7]: 26.8 µM
TGI [8]: 50.2 µM
TGI [9]: 32.8 µM
TGI [58]: 27.3 µM
TGI [10]: 29.5 µM
TGI [11]: 28.5 µM
TGI [12]: 40.8 µM
TGI [13]: 25.6 µM
TGI [14]: 29.6 µM
TGI [15]: 30.1 µM
TGI [16]: 23 µM
TGI [18]: 31.7 µM
TGI [19]: 23.3 µM
TGI [20]: 33.4 µM
TGI [21]: 29.8 µM
TGI [22]: 22.8 µM
TGI [23]: 27.6 µM
TGI [24]: 30.5 µM
TGI [25]: 28.9 µM
TGI [26]: 25.6 µM
TGI [27]: 26.2 µM
TGI [28]: 27.2 µM
TGI [29]: 37.9 µM
TGI [30]: 19.3 µM
TGI [31]: 22.1 µM
TGI [32]: 34.5 µM
TGI [33]: 23.3 µM
TGI [34]: 22 µM
TGI [35]: 42.7 µM
TGI [37]: 26.5 µM
TGI [38]: 27 µM
TGI [39]: 25.9 µM
TGI [59]: 32 µM
TGI [40]: 27.6 µM
TGI [41]: 29.7 µM
TGI [42]: 27.3 µM
TGI [43]: 24.4 µM
TGI [44]: 30.5 µM
TGI [45]: 30.7 µM
TGI [46]: 26 µM
TGI [47]: 29.2 µM
TGI [48]: 26.8 µM
TGI [49]: 28.3 µM
TGI [50]: 33 µM
TGI [51]: 31.4 µM
TGI [53]: 33.3 µM
TGI [54]: 29.5 µM
TGI [55]: 32.6 µM
TGI [56]: 22.8 µM
TGI [57]: 47.1 µM

O=C(CSC1=NNC2(C(=O)N1)c1ccccc1-c1ccccc12)NC(=S)Nc1ccccc1
TGI [2]: > 10 µM
TGI [3]: > 10 µM
TGI [4]: > 10 µM
TGI [5]: > 10 µM
TGI [6]: > 10 µM
TGI [7]: > 10 µM
TGI [8]: > 10 µM
TGI [9]: > 10 µM
TGI [58]: > 10 µM
TGI [11]: > 10 µM
TGI [12]: > 10 µM
TGI [13]: > 10 µM
TGI [14]: > 10 µM
TGI [15]: > 10 µM
TGI [16]: > 10 µM
TGI [17]: > 10 µM
TGI [18]: > 10 µM
TGI [19]: > 10 µM
TGI [20]: > 10 µM
TGI [21]: > 10 µM
TGI [22]: > 10 µM
TGI [23]: > 10 µM
TGI [24]: > 10 µM
TGI [25]: > 10 µM
TGI [26]: > 10 µM
TGI [27]: > 10 µM
TGI [28]: > 10 µM
TGI [29]: > 10 µM
TGI [30]: > 10 µM
TGI [31]: > 10 µM
TGI [32]: > 10 µM
TGI [33]: > 10 µM
TGI [35]: > 10 µM
TGI [36]: > 10 µM
TGI [37]: > 10 µM
TGI [38]: > 10 µM
TGI [39]: > 10 µM
TGI [59]: > 10 µM
TGI [40]: > 10 µM
TGI [41]: > 10 µM
TGI [42]: > 10 µM
TGI [43]: > 10 µM
TGI [44]: > 10 µM
TGI [46]: > 10 µM
TGI [47]: > 10 µM
TGI [48]: > 10 µM
TGI [49]: > 10 µM
TGI [50]: > 10 µM
TGI [51]: > 10 µM
TGI [52]: > 10 µM
TGI [53]: > 10 µM
TGI [54]: > 10 µM
TGI [55]: > 10 µM
TGI [57]: > 10 µM
